Here are results for 46 molecules from US8309554B2 (priority 2008, dated 2012).

Like-named read-outs stand apart in the source and are kept apart here.

One test deals with H460. In words: cells. To be noted: for IC50: Homo sapiens. Type of test: cell-based.
Another test relates to HT29. In words: cells. Type of test: cell-based. The note with it: for IC50: Homo sapiens, HT-29, 2 h.
[1] abbreviates: NCI-H460, read-out: 2 h Air H460 monolayer IC50.
Where [2] appears, read: NCI-H460, read-out: 2 h N2 H460 monolayer IC50.
Setting [3] is: NCI-H460, 2 h, read-out: 2 hr Air H460 IC50.
The mark [4] stands for this setting: NCI-H460, 2 h, read-out: 2 hr N2 H460 IC50.

For `Cc1cc(OS(=O)(=O)Cc2ccsc2[N+](=O)[O-])ccc1N(CCCl)CCCl` [TH-1103], the half-maximal inhibitory concentration (IC50) worked out at 0.7 µM in the test with H460 (setting [1]) and 0.1 µM in the test on H460 (setting [2]).
In the same order, the values of `Cn1c(CS(=O)(=O)Nc2ccc(N(CCCl)CCCl)cc2)cnc1[N+](=O)[O-]` [TH-1104] are 7.4 µM and 6.1 µM.
Turning to `O=[N+]([O-])c1nccn1CS(=O)(=O)Nc1ccc(N(CCCl)CCCl)cc1` [TH-1105], the 50% inhibitory concentration (IC50) with H460 (setting [1]) worked out at 7.6 µM; in the test on H460 (setting [2]) it was 4.2 µM.
In the same order, the values of `Cc1cc(OS(=O)(=O)Cn2ccnc2[N+](=O)[O-])ccc1N(CCCl)CCCl` [TH-1106] are 0.9 µM and 0.2 µM.
For `CN(c1ccc(N(CCCl)CCCl)cc1)S(=O)(=O)Cc1cnc([N+](=O)[O-])n1C` [TH-1108], the results for the IC50 in the test on H460 (setting [1]) and with H460 (setting [2]) were 15 µM and 11 µM, respectively.
The corresponding values for `Cc1cc(OS(=O)(=O)Cc2ncc([N+](=O)[O-])n2C)ccc1N(CCCl)CCCl` [TH-1110] are 1.4 µM and 2.1 µM.
In the same order, the values of `Cc1cc(OS(=O)(=O)Cc2ncn(C)c2[N+](=O)[O-])ccc1N(CCCl)CCCl` [TH-1111] are 4.7 µM and 2.5 µM.
The corresponding values for `Cc1cc(OS(=O)(=O)Cc2nc(C)n(C)c2[N+](=O)[O-])ccc1N(CCCl)CCCl` [TH-1112] are 1.4 µM and 1.7 µM.
Regarding `Cc1cc(OS(=O)(=O)C(C)(C)c2ccc([N+](=O)[O-])cc2)ccc1N(CCCl)CCCl` [TH-1115], the IC50 is 13 µM with H460 (setting [1]) and 3 µM in the test with H460 (setting [2]).
As to `Cc1cc(OS(=O)(=O)C(C)(C)c2ccc([N+](=O)[O-])cc2)ccc1N(CCBr)CCBr` [TH-1116], the IC50 in the test with H460 (setting [1]) is 1.1 µM; in the test with H460 (setting [2]) it was 0.6 µM.
In the same order, the values of `Cc1cc(OS(=O)(=O)Cc2ccoc2[N+](=O)[O-])ccc1N(CCCl)CCCl` [TH-1117] are 2.3 µM and 1.1 µM.
In the same order, the values of `CN(c1ccc(N(CCCl)CCCl)cc1)S(=O)(=O)Cc1ccsc1[N+](=O)[O-]` [TH-1118] are 12.9 µM and 6.7 µM.
In the same order, the values of `Cn1c(CN(c2ccc(N(CCCl)CCCl)cc2)S(=O)(=O)CCl)cnc1[N+](=O)[O-]` [TH-1119] are over 300 µM and over 300 µM.
`Cc1cc(OS(=O)(=O)C(C)(C)c2ccsc2[N+](=O)[O-])ccc1N(CCCl)CCCl` [TH-1121]: the values for the half-inhibitory concentration (IC50) in the test on H460 (setting [1]) and with H460 (setting [2]) were 1.3 µM and 0.3 µM, respectively.
The corresponding values for `CC(c1ccc([N+](=O)[O-])cc1)S(=O)(=O)N(C)c1ccc(N(CCCl)CCCl)cc1` (stereo not shown) [TH-1122] are over 300 µM and over 300 µM.
In the same order, the values of `CN(c1ccc(N(CCCl)CCCl)cc1)S(=O)(=O)Cc1ccc([N+](=O)[O-])cc1` [TH-1123] are over 300 µM and over 300 µM.
In the same order, the values of `CN(c1ccc(N(CCCl)CCCl)cc1)S(=O)(=O)C(C)(C)c1ccc([N+](=O)[O-])cc1` [TH-1124] are 289 µM and 243 µM.
In the case of `Cc1cc(CS(=O)(=O)N(C)c2ccc(N(CCCl)CCCl)cc2)c([N+](=O)[O-])s1` [TH-1125], the IC50 with H460 (setting [1]) came out at 148 µM; in the test with H460 (setting [2]), 69 µM.
In the same order, the values of `Cn1c(CN(c2ccc(N(CCCl)CCCl)cc2)S(=O)(=O)C(F)(F)F)cnc1[N+](=O)[O-]` [TH-1128] are 267 µM and 294 µM.
In the same order, the values of `CN(c1ccc(N(CCCl)CCCl)cc1)S(=O)(=O)Cc1nc(-c2ccccc2)c([N+](=O)[O-])n1C` [TH-1129] are 6.9 µM and 3.6 µM.
For `CN(c1ccc(N(CCCl)CCCl)cc1)S(=O)(=O)C(C)(C)c1nc(-c2ccccc2)c([N+](=O)[O-])n1C` [TH-1130], the IC50 is 122 µM with H460 (setting [1]) and 65 µM in the test with H460 (setting [2]).
The corresponding values for `Cc1cc(CS(=O)(=O)Oc2ccc(N(CCCl)CCCl)c(C)c2)c([N+](=O)[O-])s1` [TH-1131] are 1 µM and 0.3 µM.
The corresponding values for `Cc1cc(C(C)(C)S(=O)(=O)Oc2ccc(N(CCCl)CCCl)c(C)c2)c([N+](=O)[O-])s1` [TH-1132] are 2 µM and 0.3 µM.
The corresponding values for `O=[N+]([O-])c1nccn1CS(=O)(=O)Nc1cc(F)c(N(CCCl)CCCl)c(F)c1` [TH-1133] are 11.3 µM and 5.9 µM.
Take `Cc1cc(OS(=O)(=O)C(C)(C)n2ccnc2[N+](=O)[O-])ccc1N(CCCl)CCCl` [TH-1134]: the IC50 in the test with H460 (setting [1]) was 0.2 µM; with H460 (setting [2]), under 0.1 µM.
In the same order, the values of `CN(c1cc(F)c(N(CCCl)CCCl)c(F)c1)S(=O)(=O)Cn1ccnc1[N+](=O)[O-]` [TH-1135] are 9.2 µM and 3.4 µM.
The corresponding values for `CN(c1cc(F)c(N(CCCl)CCCl)c(F)c1)S(=O)(=O)C(C)(C)n1ccnc1[N+](=O)[O-]` [TH-1136] are 5.1 µM and 5 µM.
The corresponding values for `Cn1c(CS(=O)(=O)Nc2cc(F)c(N(CCCl)CCCl)c(F)c2)cnc1[N+](=O)[O-]` [TH-1137] are 20.4 µM and 8.3 µM.
`CN(c1cc(F)c(N(CCCl)CCCl)c(F)c1)S(=O)(=O)Cc1cnc([N+](=O)[O-])n1C` [TH-1138]: the values for the IC50 with H460 (setting [1]) and in the test on H460 (setting [2]) were 34.2 µM and 13.5 µM, respectively.
Turning to `O=[N+]([O-])c1sccc1C(Cc1ccc2c(ccn2CCO)c1)S(=O)(=O)Oc1ccc(N(CCCl)CCCl)cc1` (stereo not shown) [TH-1140], in the test with H460, the “H460 HCR: Air/N2” value was determined as 114. In addition, the results for the IC50 in the test with H460 (setting [3]) and in the test with H460 (setting [4]) were 114 µM and 1 µM, respectively.
Consider `CN(c1ccc(N(CCBr)CCBr)cc1)S(=O)(=O)Cn1ccnc1[N+](=O)[O-]` [TH-1141], for which the IC50 came to 0.5 µM in the test with H460 (setting [1]) and 0.1 µM in the test with H460 (setting [2]).
The corresponding values for `CCc1nc([N+](=O)[O-])n(C)c1CS(=O)(=O)N(C)c1ccc(N(CCCl)CCCl)cc1` [TH-1145] are 78.2 µM and 3.8 µM.
In the case of `O=[N+]([O-])c1sccc1CS(=O)(=O)Oc1ccc(N(CCCl)CCCl)c(F)c1` [TH-1192, 3-((3-Fluoro-4-(N,N-bis-(2-chloroethyl)amino)phenoxy)sulfonyl)methyl-2-nitrothiophene], the “H460 HCR: Air/N2” value in the test with H460 is listed as 39. The concentration for half-maximal inhibition (IC50) stood at 59.2 µM in the test with H460 (setting [3]), 1.5 µM in the test on H460 (setting [4]), 162 µM in the test with HT29 (read-out: 2 hr Air HT29 IC50) and 8 µM in the test with HT29 (read-out: 2 hr N2 HT29 IC50). For the same molecule, in the test on HT29, the “HT29 HCR: Air/N2” value was 20.
`O=[N+]([O-])c1sccc1C(CNS(=O)(=O)c1ccccc1)S(=O)(=O)Oc1ccc(N(CCCl)CCCl)cc1` (stereo not shown) [TH-1218, 3-(4-(N,N-bis-(2-Chloroethyl)amino)phenoxysulfonyl-(phenylsulfonylaminomethyl))methyl-2-nitrothiophene]: the “H460 HCR: Air/N2” value in the test on H460 is reported as 106. The concentration for half-maximal inhibition (IC50) in the test with H460 (setting [3]) is 74 µM; in the test on H460 (setting [4]), 0.7 µM; with HT29 (read-out: 2 hr Air HT29 IC50), over 300 µM; in the test on HT29 (read-out: 2 hr N2 HT29 IC50), over 300 µM.
With `O=[N+]([O-])c1sccc1C(Cc1ccc(NS(=O)(=O)C(F)(F)F)nc1)S(=O)(=O)Oc1ccc(N(CCCl)CCCl)cc1` (stereo not shown) [TH-1262], the “H460 HCR: Air/N2” value in the test on H460 is on record as 150. Besides, the IC50 in the test on H460 (setting [3]) is 90 µM; in the test with H460 (setting [4]), 0.6 µM.
Regarding `CS(=O)(=O)Nc1ccc(CC(c2ccsc2[N+](=O)[O-])S(=O)(=O)Oc2ccc(N(CCCl)CCCl)cc2)cn1` (stereo not shown) [TH-1272], the “H460 HCR: Air/N2” value in the test with H460 came to 91. Further, the results for the IC50 with H460 (setting [3]) and with H460 (setting [4]) were 290 µM and 3.2 µM, respectively.
In the same order, the values of `Cc1ccc(S(=O)(=O)NCC(c2ccsc2[N+](=O)[O-])S(=O)(=O)Oc2ccc(N(CCCl)CCCl)cc2)cc1` (stereo not shown) [TH-1312] are 31, 122 µM and 3.9 µM.
On to `O=[N+]([O-])c1sccc1C(Cc1ccc(Cl)nc1)S(=O)(=O)Oc1ccc(N(CCCl)CCCl)cc1` (stereo not shown) [TH-1341], for which, in the test with H460, the “H460 HCR: Air/N2” value is 43. Besides, the concentration for half-maximal inhibition (IC50) in the test on H460 (setting [3]) worked out at 145 µM; in the test with H460 (setting [4]), 3.4 µM.
For the molecule `CC(C)(C)OC(=O)NCC(=O)Nc1ccc(CC(c2ccsc2[N+](=O)[O-])S(=O)(=O)Oc2ccc(N(CCCl)CCCl)cc2)cn1` (stereo not shown) [TH-1351], in the test with H460, the “H460 HCR: Air/N2” value came to 49. Also, the IC50 was about 300 µM with H460 (setting [3]) and 6.1 µM with H460 (setting [4]).
As for `O=[N+]([O-])c1sccc1C(Cc1ccc(N2CCC[C@H]2CO)nc1)S(=O)(=O)Oc1ccc(N(CCCl)CCCl)cc1` (stereo partly shown) [TH-1430], the “H460 HCR: Air/N2” value in the test with H460 amounted to 500. Also, the IC50 with H460 (setting [3]) worked out at 300 µM; with H460 (setting [4]), 0.6 µM.
In the case of `CN(CCO)c1ccc(CC(c2ccsc2[N+](=O)[O-])S(=O)(=O)Oc2ccc(N(CCCl)CCCl)cc2)cn1` (stereo not shown) [TH-1434], the “H460 HCR: Air/N2” value with H460 was determined as 83. Moreover, the IC50 stood at 50 µM in the test with H460 (setting [3]) and 0.6 µM in the test on H460 (setting [4]).
The corresponding values for `O=[N+]([O-])c1sccc1C(Cc1ccc(O[C@@H]2CCC[C@H]2O)nc1)S(=O)(=O)Oc1ccc(N(CCCl)CCCl)cc1` (stereo partly shown) [TH-1452] are 55, 110 µM and 2 µM.
In the same order, the values of `O=[N+]([O-])c1sccc1C(Cc1ccc2nn(CCO)nc2c1)S(=O)(=O)Oc1ccc(N(CCCl)CCCl)cc1` (stereo not shown) [TH-1458] are 60, 30 µM and 0.5 µM.
Regarding `C[C@H](O)C(=O)Nc1ccc(CC(c2ccsc2[N+](=O)[O-])S(=O)(=O)Oc2ccc(N(CCCl)CCCl)cc2)cc1` (stereo partly shown) [TH-1468], the “H460 HCR: Air/N2” value in the test with H460 was found to be 75. For the same molecule, the IC50 in the test on H460 (setting [3]) was determined as 30 µM; with H460 (setting [4]), 0.4 µM.
In the same order, the values of `COCC(=O)Nc1ccc(CC(c2ccsc2[N+](=O)[O-])S(=O)(=O)Oc2ccc(N(CCCl)CCCl)cc2)cn1` (stereo not shown) [TH-1477] are 43, 13 µM and 0.3 µM.
In the same order, the values of `C[C@H](O)[C@H](C)Oc1ccc(CC(c2ccsc2[N+](=O)[O-])S(=O)(=O)Oc2ccc(N(CCCl)CCCl)cc2)cn1` (stereo partly shown) [TH-1486] are 36, 36 µM and 1 µM.

What is called IC50 is the point on the concentration scale where inhibition reaches its midpoint.
